According to patent US11771673B2, “On site generated performic acid compositions for teat treatment” (ECOLAB USA INC., priority 2018, dated 2023):

Assay: Accelerated stability of hydrogen peroxide premixes with different self-indicators under 40° C.
Format: physicochemical
Details: approximately 13 weeks
Procedure: The hydrogen peroxide premixes were prepared according to Table 10 with differing types of FD&C dyes. The compositions were stored in a 40° C. oven for approximately 13 weeks. Their stability, as evaluated by the presence of hydrogen peroxide, was compared and is depicted in Table 11.

O=S(=O)([O-])c1ccc(N=Nc2c(O)ccc3cc(S(=O)(=O)[O-])ccc23)cc1.[Na+].[Na+] [FD&C yellow 6]
stability of dye in hydrogen peroxide premix: significantly more stable than FD&C yellow 5
